According to US11208418B2, “Nitrogenous tricyclic compounds and uses thereof in medicine” (SUNSHINE LAKE PHARMA CO., LTD., priority 2018, dated 2021):

What was measured:
[1] = Liver microsome stability test; format: in vitro ADME; conditions: rat liver microsomes, compound 1 μM, 0.5 mg/mL microsome, 37° C.; for half-life at 1 μM: pH 7.4
Protocol: The solution of compound in DMSO (10 mM) was diluted with a mixed solvent of acetonitrile and water (1:1, v/v) to get a 100 μM compound solution, and then the 100 μM compound solution was diluted with potassium phosphate buffer (0.1 M, pH 7.4) to get a 3 μM compound solution. NADPH was formulated with potassium phosphate buffer (0.1 M, pH 7.4) to NADPH solution (6 mM). Rat liver microsome was formulated with potassium phosphate buffer (0.1 M, pH 7.4) to liver microsome solution (1.5 mg/mL).
The total volume of incubation mixture was 45 μL, including 15 μL rat liver microsome solution (1.5 mg/mL), 15 μL compound solution (3 μM) and 15 μL NADPH solution (6 mM), the final concentration of liver microsome in the incubation mixture was 0.5 mg/mL, the compound concentration was 1 μM, the NADPH concentration was 2 mM.
The incubation mixture was incubated at 37° C. The reaction was terminated by adding 120 μL acetonitrile solution containing internal standard at different time points (20 min and 60 min), and centrifuged at 4000 rpm for 5 min. The supernatant was took out and analyzed by LC-MS/MS.
At the same time, a parallel incubation test was set up, using inactivated rat liver microsomes as negative control and verapamil at the same concentration as positive control. The reaction was incubated at 37° C. and terminated at different time points (20 minutes and 60 minutes).
The ratio of sample peak area to internal standard peak area was obtained by analyzing through LC/MS/MS, the drug content of the negative control was as 100%, the drug relative content at each time point was calculated. The rate constant was obtained by plotting based on “Log[compound concentration]” to “incubating time”, and then the half-life T1/2 and intrinsic clearance CLHep of the compound were calculated.

[2] = target: farnesoid X receptor protein (Homo sapiens (Human), UniProt Q96RI1); assay: Coactivation of TR-FRET farnesoid X receptor protein (Invitrogen PV4833 Kit); format: biochemical; conditions: TR-FRET coactivator recruitment, Fluorescein-SRC2-2, 1 hour at room temperature
Protocol: Purchasing Invitrogen PV4833 Kit.
Step 1, the compound was weighed and dissolved in 100% DMSO, the highest concentration is 3000 μM, and then diluted with DMSO by 3-fold serial dilution to get 10 concentrations.
Step 2, the above formulated compound solutions were diluted 100 times with the buffer provided in the kit, which were mixed respectively and 10 μL of which were added into a 384 well plate in turn.
Step 3, FXR recombinant nucleo receptor protein was diluted with a buffer to formulate 4× concentration, and 5 μL of which was added into the above 384 well plate containing the compound.
Step 4, Fluorescein-SRC2-2 and Tb anti-GST antibody were diluted with a buffer respectively, both concentration are 4×, after the two reagents were mixed together, 10 μL of which was added into the 384 well plate described in step 3.
At last, the solution in the 384 well plate was blend by centrifugation, and then incubated at room temperature for 1 hour.

[3] = Pharmacokinetic test in SD rats; format: in vivo; conditions: male, rat, plasma
Protocol: Experimental animals: 6 healthy male adult SD rats (purchased from Hunan SJA Laboratory Animal Co.; Ltd) were randomized into 2 groups, 3 in each group, the groups were administered by intravenous injection and gavage respectively.
Preparation of drugs: an amount of the compound was scaled, and the target concentrate of the compound was prepared by addition of 5% DMSO, 10% Kolliphor HS15 and 85% saline (0.9%).
Administration and samples collection: the animals were fasted 12 hours before administration and provided again 3 hours post-administration, SD rats were administrated by intravenous injection from hindlimb peduncular veins (1 mg/kg) and by gavage (PO, 5 mg/kg). 200-400 μL of blood was collected at different time points 0, 0.083, 0.25, 0.5, 1, 2, 4, 6, 8, 24 h from rats tail vein. Blood collection was 200-400 μL per time point. The blood collected at each time point was placed in K2EDTA anticoagulant tube, and stored at a couveuse with ice bags. All the samples in 15 min were centrifuged at 4600 r/min at 4° C. for 5 min, plasma samples were obtained, the concentrates of compound in the plasma samples were determined by LC/MS/MS, the pharmacokinetic parameters were calculated based on the drug concentration-time curve.

farnesoid X receptor protein, sequence (Q96RI1 262-486, other chains not shown): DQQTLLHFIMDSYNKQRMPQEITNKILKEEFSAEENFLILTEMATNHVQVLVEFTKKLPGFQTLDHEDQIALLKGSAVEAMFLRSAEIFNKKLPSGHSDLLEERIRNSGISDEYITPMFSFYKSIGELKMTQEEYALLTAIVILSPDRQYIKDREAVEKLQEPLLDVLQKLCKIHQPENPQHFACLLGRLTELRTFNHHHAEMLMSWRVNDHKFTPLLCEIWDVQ

half-life at 1 μM [1] [min]	ClHep [1] [mL/min/kg]	SMILES	EC50 [2] [nM]	AUC(0-inf) ([3]; iv, 1 mg/kg) [ng·h/mL]	AUC(0-t) ([3]; iv, 1 mg/kg) [ng·h/mL]	Cmax ([3]; iv, 1 mg/kg) [ng/mL]	MRT inf ([3]; iv, 1 mg/kg) [min]	Tmax ([3]; iv, 1 mg/kg) [min]	clearance ([3]; iv, 1 mg/kg) [mL/min/kg]	half-life ([3]; iv, 1 mg/kg) [min]	Vd ([3]; iv, 1 mg/kg, read-out: Vss) [L/kg]	bioavailability ([3]; po 5 mg/kg versus iv 1 mg/kg) [%]	AUC(0-inf) ([3]; po, 5 mg/kg) [ng·h/mL]	AUC(0-t) ([3]; po, 5 mg/kg) [ng·h/mL]	Cmax ([3]; po, 5 mg/kg) [ng/mL]	MRT inf ([3]; po, 5 mg/kg) [min]	Tmax ([3]; po, 5 mg/kg) [min]	half-life ([3]; po, 5 mg/kg) [min]
25	99.23	O=C(O)c1ccc2c(c1)Oc1ccc(OCc3c(-c4ccc(Cl)cc4Cl)noc3C3CC3)nc1C1(CC1)C2 [Example 5, 2-((5-cyclopropyl-3-(2,4-dichlorophenyl)isoxazol-4-yl)methoxy)-10H-spiro[benzo[6,7]oxepino[3,2-b]pyridine-11,1′-cyclopropane]-7-carboxylic acid]																
28.8	86.33	O=C(O)c1ccc2c(c1)Oc1ccc(OCc3c(-c4ccccc4OC(F)(F)F)noc3C3CC3)nc1CC2 [Example 2, 2-((5-cyclopropyl-3-(2-(trifluoromethoxy)phenyl)isoxazol-4-yl)methoxy)-10,11-dihydrobenzo[6,7]oxepino[3,2-b]pyridine-7-carboxylic acid]																

SMILES	half-life at 1 μM [1] [min]	ClHep [1] [mL/min/kg]	EC50 [2] [nM]	AUC(0-inf) ([3]; iv, 1 mg/kg) [ng·h/mL]	AUC(0-t) ([3]; iv, 1 mg/kg) [ng·h/mL]	Cmax ([3]; iv, 1 mg/kg) [ng/mL]	MRT inf ([3]; iv, 1 mg/kg) [min]	Tmax ([3]; iv, 1 mg/kg) [min]	clearance ([3]; iv, 1 mg/kg) [mL/min/kg]	half-life ([3]; iv, 1 mg/kg) [min]	Vd ([3]; iv, 1 mg/kg, read-out: Vss) [L/kg]	bioavailability ([3]; po 5 mg/kg versus iv 1 mg/kg) [%]	AUC(0-inf) ([3]; po, 5 mg/kg) [ng·h/mL]	AUC(0-t) ([3]; po, 5 mg/kg) [ng·h/mL]	Cmax ([3]; po, 5 mg/kg) [ng/mL]	MRT inf ([3]; po, 5 mg/kg) [min]	Tmax ([3]; po, 5 mg/kg) [min]	half-life ([3]; po, 5 mg/kg) [min]
O=C(O)c1ccc2c(c1)Oc1ccc(OCc3c(-c4ccccc4OC(F)(F)F)noc3C3CC3)nc1C1(CC1)C2 [Example 3, 2-((5-cyclopropyl-3-(2-(trifluoromethoxy)phenyl)isoxazol-4-yl)methoxy)-10H-Spiro[benzo[6,7]oxepino[3,2-b]pyridine-11,1′-cyclopropane]-7-carboxylic acid]	26.8	92.61	8.6	1740	1730	1660	60.6	4.98	9.62	46.4	0.584	71.3	6210	6170	2320	103	60	53.5
